Values of other authors, collected in patent US20200360403A1, “OPTHALMIC COMPOSITIONS FOR INHIBITING CLOUDING OF THE OCULAR LENS” (priority 2019, published 2020).

Assays:
[1] = system: cffl-crystallins; conditions: compared to ATP
[2] = system: aggregated lens protein; conditions: all studies by Daszynski et al.

Compound | binding scores for good predictive binding to the crystallins [1] | anti-cataractogenic activity or binding of aggregated lens protein to dissolve cataracts [2]
C[C@H](CCCC(C)(C)O)[C@H]1CC[C@H]2[C@@H]3CC=C4C[C@@H](O)CC[C@]4(C)[C@H]3CC[C@]12C [25-hydroxycholesterol] | failed to reach the acceptable threshold binding scores | failed to provide evidence
CC(C)=CCC[C@@H](C)[C@H]1CC[C@@]2(C)C3=C(CC[C@]12C)[C@@]1(C)CC[C@H](O)C(C)(C)[C@@H]1CC3 [lanosterol] | failed to reach the acceptable threshold binding scores | failed to provide evidence
